Test results published in ChEMBL document CHEMBL5725797, “Heterocyclic compounds and their use as glycogen synthase kinase-3 inhibitors” (2018).

Biological target: Glycogen synthase kinase-3 beta (Homo sapiens, UniProt P49841)
Test: Biochemical hGSK-3Beta Assay: Compounds were tested for their ability to inhibit human Glycogen Synthase Kinase-3 beta (hGSK-3β) to phosphorylate biotin-[…](pS)EDEEE. Compounds were incubated with 0.5 μCi 33P-ATP, 10 μM ATP, 0.0125 U hGSK-3β (Upstate cell signaling solutions) and 1 μM substrate (biotin-[…](pS)EDEEE) in 50 mM HEPES, 10 mM MgCl2, 100 mM Na3VO4, 1 mM DTT, 0.0075% Triton, 2% DMSO (total volume 50 μL) for 30 minutes at room temperature. The incubation was stopped by addition of an equal volume of 100 mM EDTA, 4M NaCl. 80 μL of this mixture was added to streptavidin-coated Flash-plates (PerkinElmer). Following a wash step, 33P incorporation was quantified on a MicroBeta microplate liquid scintillation counter (Perkin Elmer). IC50s were determined by fitting a sigmoidal dose-response curve to the counts obtained at the different concentrations in GraphPad Prism.

Chain of Glycogen synthase kinase-3 beta (P49841 whole entry): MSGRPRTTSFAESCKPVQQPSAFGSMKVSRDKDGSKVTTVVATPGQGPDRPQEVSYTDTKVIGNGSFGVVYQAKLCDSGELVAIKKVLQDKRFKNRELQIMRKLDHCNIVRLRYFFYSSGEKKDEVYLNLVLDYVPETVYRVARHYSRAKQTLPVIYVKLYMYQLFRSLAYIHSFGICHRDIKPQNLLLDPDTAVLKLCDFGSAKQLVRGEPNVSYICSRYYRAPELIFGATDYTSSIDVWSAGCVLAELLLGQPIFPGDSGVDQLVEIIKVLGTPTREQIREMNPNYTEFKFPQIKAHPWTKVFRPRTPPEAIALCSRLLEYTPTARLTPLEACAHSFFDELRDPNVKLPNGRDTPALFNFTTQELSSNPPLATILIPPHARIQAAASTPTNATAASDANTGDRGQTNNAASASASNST

N#Cc1ccc2c(c1)C(c1ccc3c(n1)CCCC3=O)C(=O)N2 (configuration not stated)
IC50: < 100 nM

N#Cc1ccc2c(c1)C(c1ccc3c(n1)C(O)CCC3)C(=O)N2 (configuration not stated)
IC50: < 100 nM
